The text below walks through data of patent US20230087361A1, “USE OF DIANTHRONE COMPOUND IN PREPARATION OF MEDICAMENT FOR PREVENTION AND/OR TREATMENT OF MYOCARDIAL ISCHEMIC DISEASE AND RELATED DISEASE THEREOF” (National Institutes for Food and Drug Control, priority 2021, published 2023).

The test system of test [1] is mice with ISO-induced myocardial ischemia. The test is described as follows: Serum myocardial enzyme CK-MB (ELISA) in mice with ISO-induced myocardial ischemia. It counts as in vivo, Kunming mice. Conditions: ISO model mice; dianthrone 10 mg/kg intragastric or diltiazem 20 mg/kg intraperitoneal once a day for 10 days; serum 2 h after final ISO; n=7-10. The protocol: (§1) Male Kunming mice were acclimatized and randomly divided into four groups: a blank control group, an ISO model group, an ISO+diltiazem 20 mg.kg^1 positive control group, and an ISO+dianthrone 10 mgkgi group. Mice in the dianthrone group were intragastrically given the corresponding dose of dianthrone once a day, those in the diltiazem group were intraperitoneally given once a day, and those in the blank control group and the model group were given the same dose of solvent (both of which were 10 mL. kg) for 10 consecutive days. On day 4 of administration, the mice in each group were injected subcutaneously with 40 mg.kg^1 ISO once; the concentration of ISO subcutaneous injection was adjusted to 20 mg.kg^- on days 5 to 10 of administration. All mice were modeled at 2 h after administration. On the final day, the animals were treated at 2 h after ISO administration and modeling. Animal weights were recorded during the experiment. […]
(§2) Assay for biomarker for myocardial injury and myocardial enzyme: The blood was drawn from the orbit of the mouse, let stand at room temperature for 2 h, and centrifuged at 3,500 rpm for 20 min to separate the serum. The serum levels of CK-MB and cTn-T were detected according to the ELISA kit instructions.
On the technique in general: An ELISA detects its analyte on a solid surface through an enzyme-linked reagent.

For test [2] the test system is unchanged. The test is described as follows: Serum biomarker for myocardial injury cTn-T (ELISA) in mice with ISO-induced myocardial ischemia. It counts as in vivo, Kunming mice. Conditions: ISO model mice; dianthrone 10 mg/kg intragastric or diltiazem 20 mg/kg intraperitoneal once a day for 10 days; serum 2 h after final ISO; n=7-10. How it is done:
as §1, §2

With `COc1ccc([C@@H]2Sc3ccccc3N(CCN(C)C)C(=O)[C@@H]2OC(C)=O)cc1` [Diltiazem, diltiazem], the “CK-MB (serum)” value in test [1] is given as 7.11 ± 1.63 ng/mL. Further, in test [2], the “cTn-T (serum)” value worked out at 273.93 ± 36.17 ng/L.
